≈ marks a conversion by molar mass, not a printed value. Bounds are passed on as bounds.

Among the data in ChEMBL document CHEMBL4513161, “CO-ADD screening of MMV (CH) - Pandemic Response Box” (2021) are MIC and CC50 values, retold here.

The subject of assay [1] is Staphylococcus aureus. The assay is described as follows: microbe, parasite or virus in culture. To be noted: ATCC 43300, 18 h, ASSAY_TEST Inhibition of Bacterial Growth, detection method Absorption (OD600), MEDIA CAMHB, plate type 384well, NBS, CORNING #3640.
Description: Antibacterial activity against Staphylococcus aureus MRSA ATCC 43300 (CO-ADD:GP_020); MIC in CAMBH media, using NBS plates, by OD(600)
The test system of assay [2] is Pseudomonas aeruginosa. The assay is described as follows: microbe, parasite or virus in culture. To be noted: ATCC 27853, 18 h, ASSAY_TEST Inhibition of Bacterial Growth, detection method Absorption (OD600), MEDIA CAMHB, plate type 384well, NBS, CORNING #3640.
Description: Antibacterial activity against Pseudomonas aeruginosa ATCC 27853 (CO-ADD:GN_042); MIC in CAMBH media using NBS plates, by OD(600)
Assay [3] deals with HEK293. The assay is described as follows: cells. It is filed as functional, Homo sapiens, ATCC CRL1573. To be noted: Homo sapiens, ATCC CRL1573, HEK293; ASSAY_TEST Inhibition of Cell Viability; detection method Resazurin; Fluorescence (ex560/em590); MEDIA DMEM with 10% FBS; plate type 384well; TC; CORNING #3712; time 18 hr; read-out: CC50. In general terms: Resazurin is reduced to fluorescent resorufin, in cell work by metabolically active cells.

The test system of assay [4] is Cryptococcus neoformans.
Description: Antifungal activity against Cryptococcus neoformans H99 ATCC 208821 (CO-ADD:FG_002); MIC in YNB media using NBS plates, by Resazurin OD(600-570)
In assay [5] the test system is Candida albicans. The assay is described as follows: microbe, parasite or virus in culture. To be noted: ATCC 90028, ASSAY_TEST Inhibition of Fungal Growth, detection method Absorption (OD530), plate type 384well, NBS, CORNING #3640.
Description: Antifungal activity against Candida albicans ATCC 90028 (CO-ADD:FG_001); MIC in YNB media using NBS plates, by OD630
Assay [6] has as its system Acinetobacter baumannii. The assay is described as follows: microbe, parasite or virus in culture. To be noted: ATCC 19606, 18 h, ASSAY_TEST Inhibition of Bacterial Growth, detection method Absorption (OD600), MEDIA CAMHB, plate type 384well, NBS, CORNING #3640.
Description: Antibacterial activity against Acinetobacter baumannii ATCC 19606 (CO-ADD:GN_034); MIC in CAMBH media using NBS plates, by OD600
Assay [7] concerns Klebsiella pneumoniae. The assay is described as follows: microbe, parasite or virus in culture. To be noted: ATCC 700603, 18 h, ASSAY_TEST Inhibition of Bacterial Growth, detection method Absorption (OD600), MEDIA CAMHB, plate type 384well, NBS, CORNING #3640.
Description: Antibacterial activity against Klebsiella pneumoniae MDR ATCC 70063 (CO-ADD:GN_003); MIC in CAMBH media using NBS plates, by OD(600)
For assay [8], the system named is Pseudomonas aeruginosa. The assay is described as follows: Antibacterial activity against Pseudomonas aeruginosa PAO397 [PAO1 d(mexAB-oprM) d(mexCD-oprJ) d(mexEF-oprN) d(mexJKL) d(mexXY) d(opmH)] (CO-ADD:GN_211); MIC in CAMBH media using NBS plates, by OD(600). In kind it is functional. To be noted: ASSAY_TEST Inhibition of Bacterial Growth, detection method Absorption (OD600), MEDIA CAMHB, plate type 384well, CORNING #3640, time 18 hr.

For assay [9], the system named is Escherichia coli. The assay is described as follows: microbe, parasite or virus in culture. To be noted: ATCC 25922, 18 h, ASSAY_TEST Inhibition of Bacterial Growth, detection method Absorption (OD600), MEDIA CAMHB, plate type 384well, NBS, CORNING #3640.
Description: Antibacterial activity against Escherichia coli ATCC 25922 (CO-ADD:GN_001); MIC in CAMBH media using NBS plates, by OD(600)

In the case of `Fc1ccc(-c2nc(-c3c[nH]c4ccc(Br)cc34)[nH]c2-c2ccc(F)cc2)cc1`, the MIC in assay [1], in assay [2], in assay [4], in assay [5], in assay [6] and in assay [7] was > 20 µM throughout. The MIC in assay [8] and in assay [9] was > 20 µM each time. Also, the CC50 in assay [3] is 9.15 µM.

As to `O=c1cc(Nc2ccc3ccccc3c2)[nH]c(=O)[nH]1`, the MIC in [1], in [2], in [4], in [5], in assay [6] and in assay [7] was > 20 µM in each case. The MIC in assay [8] and in assay [9] was > 20 µM in each case. For the same compound, in assay [3], the CC50 was > 20 µM.

Consider `CCOC(=O)N1CCN(c2ccc(Cl)cc2)CC1`, for which the MIC in [1], in assay [2], in [4], in [5], in assay [6] and in assay [7] was > 20 µM each time. Also, the MIC in assay [8] and in assay [9] was > 20 µM in each case. Moreover, the CC50 in assay [3] was > 20 µM.

As for `COc1ccc(C)cc1NC(=O)c1ccc(S(=O)(=O)N2CCCCC2)cc1`, the MIC in assay [1], in assay [2], in assay [4], in [5], in assay [6] and in assay [7] was > 20 µM throughout. Also, the MIC in assay [8] and in assay [9] was > 20 µM each time. Besides, in assay [3], the CC50 is > 20 µM.

Consider `O=C(CCCC(F)(F)F)N1CCC(c2nc(-c3nccs3)no2)CC1`, for which the MIC in assay [1], in assay [2], in assay [4], in assay [5], in assay [6] and in assay [7] was > 20 µM in each case. Also, the MIC in assay [8] and in [9] was > 20 µM each time. Besides, the 50% cytotoxic concentration (CC50) in [3] was > 20 µM.

On to `O=C(Nc1nnc(-c2ccccc2)o1)c1ccc(F)cc1`, for which the MIC in assay [1] was 20 µM (≈ 5.67 µg/mL); in [2], > 20 µM; in [4], 20 µM (≈ 5.67 µg/mL); in assay [5], > 20 µM; in assay [6] it was > 20 µM; in assay [7], > 20 µM. Moreover, the MIC in assay [8] and in [9] was > 20 µM each time. Besides, the CC50 in assay [3] is > 20 µM.

Consider `CCc1nc(N)nc(N)c1C#CC(C)c1cc(OC)cc(-c2ccncc2)c1` (stereo not given), for which the MIC is 2.5 µM (≈ 0.934 µg/mL) in assay [1]; > 20 µM in assay [2]; > 20 µM in [4]; > 20 µM in [5]; > 20 µM in [6]; > 20 µM in assay [7]. Further, the MIC in assay [8] and in assay [9] was > 20 µM in each case. Moreover, in assay [3], the 50% cytotoxic concentration (CC50) was determined as 6.39 µM.

On to `Cc1nc(-c2ccc(C3N(C)c4ccc(F)cc4C(=O)N3c3ccccc3)s2)cs1` (stereo not given), for which the MIC in [1], in assay [2], in assay [4], in assay [5], in assay [6] and in assay [7] was > 20 µM throughout. The MIC in [8] and in assay [9] was > 20 µM each time. Also, the CC50 in assay [3] is > 20 µM.

For `CC1(C)Cc2c(C#N)c(SCCc3ccccc3)nc(N3CCOCC3)c2CO1`, the MIC in assay [1], in [2], in [4], in assay [5], in [6] and in assay [7] was > 20 µM each time. In addition, the MIC in assay [8] and in assay [9] was > 20 µM in each case. In addition, the CC50 in assay [3] was > 20 µM.

Consider `NC[C@H]1OB(O)c2c(OCCCO)cccc21`, for which the MIC in assay [1] is 20 µM (≈ 4.74 µg/mL); in assay [2], 5 µM (≈ 1.19 µg/mL); in assay [4], > 20 µM; in [5] it was > 20 µM; in [6], 5 µM (≈ 1.19 µg/mL); in [7], 2.5 µM (≈ 0.593 µg/mL). Moreover, the MIC in assay [8] and in [9] was 2.5 µM (≈ 0.593 µg/mL) in each case. For the same compound, the 50% cytotoxic concentration (CC50) in assay [3] is > 20 µM.

`O=C1NC(=S)N/C1=C\c1cc(Br)cc(Br)c1O`: the MIC in [1], in [2], in [4], in assay [5], in assay [6] and in assay [7] was > 20 µM each time. Besides, the MIC in [8] is 20 µM (≈ 7.56 µg/mL); in assay [9], > 20 µM. In assay [3], the 50% cytotoxic concentration (CC50) was > 20 µM.

As for `Cc1c(CN(C)C(=O)/C=C/c2cnc3c(c2)C(C)(C)C(=O)N3)oc2ccccc12`, the MIC in assay [1] was 1.25 µM (≈ 0.487 µg/mL); in assay [2], > 20 µM; in assay [4] it was > 20 µM; in assay [5], > 20 µM; in [6], > 20 µM; in assay [7] it was > 20 µM. The MIC in assay [8] and in [9] was > 20 µM in each case. Besides, the cytotoxic concentration (CC50) in assay [3] was > 20 µM.

Turning to `CC(=N)N1CC[C@H](SC2=C(C(=O)O)N3C(=O)[C@@H]([C@@H](C)O)[C@H]3C2)C1`, the MIC in assay [1], in assay [2], in assay [4], in [5], in [6] and in [7] was > 20 µM in each case. Besides, the MIC in assay [8] and in assay [9] was > 20 µM throughout. Also, the CC50 in [3] is > 20 µM.

As for `O=C(N[C@H](CCS)C(=O)N[C@H](Cc1ccccc1)C(=O)O)c1cc2ccccc2[nH]1`, the MIC in assay [1], in assay [2], in assay [4], in [5], in assay [6] and in assay [7] was > 20 µM each time. In addition, the MIC in assay [8] and in assay [9] was > 20 µM each time. The 50% cytotoxic concentration (CC50) in [3] is > 20 µM.

Take `C[C@@H]1O[C@@H]1P(=O)(O)O`: the MIC in assay [1], in [2], in [4], in assay [5], in assay [6] and in [7] was > 20 µM each time. Further, the MIC in [8] and in assay [9] was > 20 µM in each case. In assay [3], the 50% cytotoxic concentration (CC50) was > 20 µM.

`CN(C)[C@@H]1C(=O)C(C(N)=O)=C(O)[C@@]2(O)C(=O)C3=C(O)c4c(O)c(NC(=O)CN5CCCC5)cc(F)c4C[C@H]3C[C@@H]12`: the MIC in [1] was 0.312 µM (≈ 0.175 µg/mL); in assay [2], 0.625 µM (≈ 0.349 µg/mL); in assay [4], > 20 µM; in assay [5], > 20 µM; in [6], > 20 µM; in assay [7], 10 µM (≈ 5.59 µg/mL). Also, the figures for the MIC in assay [8] and in assay [9] were 0.625 µM (≈ 0.349 µg/mL) and 0.313 µM (≈ 0.175 µg/mL), respectively. Further, the 50% cytotoxic concentration (CC50) in [3] is > 20 µM.

On to `Nc1cc(N)c2nc(-c3ccccc3)c(Nc3ccc(F)cc3)nc2c1`, for which the MIC in assay [1], in assay [2], in assay [4], in assay [5], in assay [6] and in assay [7] was > 20 µM throughout. In addition, the MIC in assay [8] and in [9] was > 20 µM each time. In addition, the CC50 in [3] is 1.91 µM.

With `N#CCN1C(=O)COc2cc(F)c(N3C(=O)c4ccccc4C3=O)cc21`, the MIC in assay [1], in assay [2], in assay [4], in assay [5], in [6] and in assay [7] was > 20 µM throughout. Moreover, the MIC in assay [8] and in assay [9] was > 20 µM in each case. Besides, the CC50 in [3] is > 20 µM.

`OC1O[C@H](CSc2ccc(F)cc2)[C@@H](O)[C@H]1O` (stereo not given in full): the MIC in assay [1], in assay [2], in assay [4], in [5], in [6] and in assay [7] was > 20 µM each time. The MIC in assay [8] and in [9] was > 20 µM each time. Further, in assay [3], the CC50 is > 20 µM.

For `CN(C)CCNC(=O)c1cccc2cccnc12`, the MIC in assay [1], in assay [2], in [4], in assay [5], in assay [6] and in assay [7] was > 20 µM throughout. Further, the MIC in assay [8] and in [9] was > 20 µM throughout. In [3], the CC50 was > 20 µM.

As a reminder, the CC50 is the concentration that lowers cell viability or growth by half.
